Data set [1] relates to Caco-2 monolayers. Put plainly: Apical to basolateral transport of milk peptides across Caco-2 monolayers (LC-MS/MS of basolateral medium). The class given is in vitro ADME, human. To be noted: A-B, HBSS + 10 mM HEPES, 2.5 h; for Peptide identified in the basolateral chamber of Caco-2 monolayers (transported): Caco-2, 3 weeks on PET inserts 0.4 μm, TEER above 400 Ω cm^2, mix of 192 purified milk peptides 0.1 mg/mL apical, LC-MS/MS of basolateral medium, identified in two out of three experiments; for Peptides identified in the basolateral chamber of Caco-2 monolayers after synthetic PIGSENSEKTTMPLW was added apically: synthetic PIGSENSEKTTMPLW 2 µg/mL apical, LC-MS/MS. As to the method:
The human colorectal adenocarcinoma cell line, Caco-2, was obtained from DSMZ (Braunschweig, Germany). The cells were grown to 50–60% confluence in Dulbecco’s Modified Eagle Medium (DMEM) Glutamax cell culture medium, supplemented with 10% heat-inactivated fetal bovine serum, 100 units/mL of penicillin and 100 μg/mL of streptomycin (all from Invitrogen, Carlsbad, CA, USA) in a humidified 5% CO2/95% air atmosphere at 37 °C. The cells used in the experiments were between passages 30 and 40.
The Caco-2 cells used for transport studies were seeded in polyethylene terephthalate culture inserts, with a pore size of 0.4 μm and a growth area of 0.33 cm^2 at a density of approximately 25,000 cells/insert. The Caco-2 cells were grown for three weeks on the porous membrane before they were used for transepithelial transport. The integrity of the monolayers was confirmed by measuring the TEER using a Millicell ERS-2 volt ohmmeter. Only Caco-2 monolayers with TEER values above 400 Ω cm^2 were used for the transport analysis.
(§1) Following the TEER value measurement, the Caco-2 and PBEC monolayers were gently washed twice with phosphate-buffered saline, and the transport medium (Hanks’ Balanced Salt solution supplemented with 10 mM of HEPES) was added to the apical and basolateral compartments. The inserts were incubated for 15 min or 2.5 h with the purified milk peptides (0.1 mg/mL) or the synthetic PIGSENSEKTTMPLW peptide (2 µg/mL), after which medium from the apical and basolateral compartments were collected for liquid chromatography tandem mass spectrometry (LC-MS/MS) analysis. Inserts incubated with a medium without peptides served as the control in the transport experiments. Membrane integrity was validated by addition of D-[1-^14C]-Mannitol (3.5 µM, 56.8 mCi/mmol) (Perkin Elmer, Waltham, MA, USA) to the upper chamber of the culture inserts with or without milk peptides for 2.5 h. The passive permeability experiments were performed on four or five individual culture inserts. Basolateral samples were mixed with Ultima Gold liquid scintillation fluid (Perkin Elmer) and counted in a Tri-Carb 2810 TR scintillation counter (Perkin Elmer). The apparent permeability coefficient (Papp, cm/s) was determined as Papp = (dQ/dt)/(AC0) where dQ/dt is the steady state flux (cpm/s), A is the surface area of the cell culture insert membrane and C0 is the initial concentration in the apical compartment (cpm/mL).
LC-MS/MS analysis was performed on a TripleTOF 6600 mass spectrometer equipped with an Exigent nanoLC 415 system (AB Sciex, Les Ulis, France). All samples were micro-purified using 3 M Empore C18 discs packed in pipette tips. The lyophilized samples were dissolved in 0.1% formic acid, injected on a trap column (2 cm × 100 µm inner diameter) and separated on an analytical column packed in-house in a pulled emitter (15 cm × 75 µm inner diameter). All columns were packed with ReproSil-Pur C18-AQ 3 µm resin (courtesy of Dr. Marisch, Ammerbuch-Entringen, Germany). Peptides were eluted directly into the mass spectrometer with a linear gradient from 5 to 35% solvent B (0.1% formic acid in acetonitrile) for 20 min with a flowrate of 250 nL/min, followed after 10 min with 100% solvent B. Data files were converted to Mascot Generic Format using the Raw Converter (version 1.1.0.18) (http://fields.scripps.edu/rawconv/) or the AB Sciex MS Data Converter beta 1.1 (AB Sciex, Les Ulis, France). The generated peak lists were searched against the Bos taurus proteome (UniProt database, https://www.uniprot.org)) using an in-house Mascot search engine (Matrix Science, London, UK). The searches were made without specifying a protease and with oxidation (Met) and phosphorylation (ST) as variable modifications. Peptide tolerance was set to 10 ppm and MS/MS tolerance was set to 0.2 Da. […]
A general note: Passage across Caco-2 layers is used to estimate intestinal permeability.

The test system of data set [2] is porcine brain endothelial cell (PBEC) monolayers. In words: Apical to basolateral transport of milk peptides across porcine brain endothelial cell (PBEC) monolayers, blood-brain barrier model. The format is in vitro ADME. To be noted: A-B, HBSS + 10 mM HEPES, 2.5 h, LC-MS/MS; for Peptide identified in the basal compartment (brain side) of the PBEC BBB model (transported): primary PBEC on polyester inserts 0.4 μm, astrocyte conditioned medium, TEER higher than 800 Ω cm^2, mix of 192 milk peptides 0.1 mg/mL apical, five independent studies, αS1 peptide 'or' its truncated peptides stated collectively; for Peptides identified in the basolateral chamber of PBEC monolayers after synthetic PIGSENSEKTTMPLW was added apically: synthetic PIGSENSEKTTMPLW 2 µg/mL apical. As to the method:
Capillaries were isolated from the brain cortices of domestic pigs 5–6 months old as previously described. PBECs were cultured by plating the capillaries in T75 flasks coated with collagen IV (500 µg/mL) and fibronectin (100 µg/mL) in DMEM-F12 medium, supplemented with 10% plasma-derived serum (First Link, Wolverhampton, UK), heparin (15 U), 100 units/mL of penicillin and 100 µg/mL of streptomycin (PBEC growth medium), and cultured in an incubator with humidified 5% CO2/95% air at 37 °C. Puromycin (4 µg/mL) was added to the growth medium for the first three days to obtain a pure culture of PBECs.
Astrocyte conditioned medium was collected every third day from primary rat astrocytes, sterile filtered and frozen until use. Isolation of primary rat astrocytes and preparation of astrocyte conditioned media were carried out as described in [20].
PBECs were grown until 70–80% confluency as described above and then passaged onto polyester culture inserts with a pore size of 0.4 μm and a growth area of 1.12 cm^2 (Costar, Corning, NY, USA) at a density of 1.1 × 10^5 cells/cm^2 in the PBEC growth medium. In the basolateral chamber, the medium consisted of 1 mL of PBEC growth medium and 0.5 mL of astrocyte conditioned medium. The medium was supplemented with differentiation factors: 550 nM of hydrocortisone, 250 μM of 8-(4-chlorophenylthio)adenosine-3′,5′-cyclic monophosphate (cAMP) and 17.5 μM of RO-201724 two days after seeding. The next day, the integrity of the PBEC monolayer was confirmed by measuring the TEER. Only PBEC monolayers with TEER values higher than 800 Ω cm^2 were used for the transport analysis.
as §1
LC-MS/MS analysis was performed on a TripleTOF 6600 mass spectrometer equipped with an Exigent nanoLC 415 system (AB Sciex, Les Ulis, France). All samples were micro-purified using 3 M Empore C18 discs packed in pipette tips. The lyophilized samples were dissolved in 0.1% formic acid, injected on a trap column (2 cm × 100 µm inner diameter) and separated on an analytical column packed in-house in a pulled emitter (15 cm × 75 µm inner diameter). All columns were packed with ReproSil-Pur C18-AQ 3 µm resin (courtesy of Dr. Marisch, Ammerbuch-Entringen, Germany). […]

As for “PVLGPVRGPFPIIV [endogenous bovine milk peptide from β-casein]”, the “Peptide identified in the basolateral chamber of Caco-2 monolayers (transported)” value in data set [1] is listed as “not transported across the Caco-2 monolayers”. Moreover, the “Peptide identified in the basal compartment (brain side) of the PBEC BBB model (transported)” value in data set [2] was “identified in the basal compartment of the BBB model”.

Consider “PIGSENSEKTTMP [truncated derivative of the αS1-casein peptide …]”, for which, in data set [1], the “Peptide identified in the basolateral chamber of Caco-2 monolayers (transported)” value is “identified in the basolateral chamber” and the “Peptides identified in the basolateral chamber of Caco-2 monolayers after synthetic PIGSENSEKTTMPLW was added apically” value is on record as “identified in the basolateral chamber of both monolayers”. Moreover, in data set [2], the “Peptides identified in the basolateral chamber of PBEC monolayers after synthetic PIGSENSEKTTMPLW was added apically” value is recorded as “identified in the basolateral chamber of both monolayers” and the “Peptide identified in the basal compartment (brain side) of the PBEC BBB model (transported)” value is “identified in all experiments”.

As to “KNTMEHVSSSEESIISQETY [endogenous bovine milk peptide from αS2-casein]”, the “Peptide identified in the basolateral chamber of Caco-2 monolayers (transported)” value in data set [1] was “identified in the basolateral chamber”.

“AAPAGAAIQSR [endogenous bovine milk peptide from the polymeric immunoglobulin receptor]”: in data set [1], the “Peptide identified in the basolateral chamber of Caco-2 monolayers (transported)” value is reported as “not transported across the Caco-2 monolayers”. Moreover, the “Peptide identified in the basal compartment (brain side) of the PBEC BBB model (transported)” value in data set [2] is “identified in the basal compartment of the BBB model”.

Regarding “PIGSENSEKTT [truncated derivative of the αS1-casein peptide …]”, the “Peptides identified in the basolateral chamber of Caco-2 monolayers after synthetic PIGSENSEKTTMPLW was added apically” value in data set [1] is listed as “identified in the basolateral chamber of both monolayers”. In data set [2], the “Peptides identified in the basolateral chamber of PBEC monolayers after synthetic PIGSENSEKTTMPLW was added apically” value is given as “identified in the basolateral chamber of both monolayers” and the “Peptide identified in the basal compartment (brain side) of the PBEC BBB model (transported)” value is reported as “identified in all experiments”.

In the case of “AAPAGAAIQS [endogenous bovine milk peptide from the polymeric immunoglobulin receptor]”, the “Peptide identified in the basolateral chamber of Caco-2 monolayers (transported)” value in data set [1] is on record as “not transported across the Caco-2 monolayers”. Also, in data set [2], the “Peptide identified in the basal compartment (brain side) of the PBEC BBB model (transported)” value was “identified in the basal compartment of the BBB model”.

Consider “EVIESPPEINTVQVTSTAV [endogenous bovine milk peptide from κ-casein]”, for which the “Peptide identified in the basolateral chamber of Caco-2 monolayers (transported)” value in data set [1] is listed as “identified in the basolateral chamber”.

These data come from PMC7602804 (Nutrients, 2020).
